From patent US20250017888A1, “COMPOUNDS FOR TREATING DISEASES ASSOCIATED WITH HYALURONAN OVERPRODUCTION” (THE ROYAL VETERINARY COLLEGE, priority 2021, published 2025)

Assays:
[1] = tested on: hyaluronan export from chondrosarcoma cells; assay: Inhibition of hyaluronan export / production in chondrosarcoma cells; type: cell-based
Method: The hyaluronan synthase activity (Prehm, P. and Schumacher, U., Biochem. Pharmacol. 2004, 68, 1401-1410), the cytotoxicity of the drugs (O'Brien, J. et al., Eur. J. Biochem. 2000, 267, 5421-5426), proteoglycan synthesis rate, hyaluronan (Prehm, P. J. Rheumatol., 2005, 32, 690-696) and proteoglycan (Bjornsson, S. Anal. Biochem. 1993, 210, 282-291) were determined as described. The effect of the prenylflavonoids on the MRP5 export rate was measured with fluorescein diacetate as described (Schulz, T., Schumacher, U., and Prehm, P., J Biol. Chem., 2007, 282, 20999-21004). The determination of the IC50 values on the phosphodiesterase 5 was performed according to the instructions of BPS Bioscience. The culture of bovine chondrocytes in alginate beads and of explants of bovine cartilage was described previously (Deiters, B. and Prehm, P. Arthritis Res. Ther., 2008, 10, R8; Prehm, P. J. Rheumatol. 2005, 32, 690-696). Osteoarthritic reactions were induced in chondrocytes growing in alginate beads by incubation with medium containing 10 ng/ml of II-17 for 6 days, and in cartilage explants with 10 ng/ml of II-17 and 5 ng/ml of II-1α. The supernatants were withdrawn and stored at −20° C. for later analysis. The explants were weighed and extracted with 1 ml of 4 M guanidinium-HCl for 72 hours at 4° C. The proteoglycan concentrations were determined in the extracts.
Chondrosarcoma cells were plated on a 96 well microtiter plate and in the presence of increasing flavonoid concentrations. After 2 days the concentration of hyaluronan was determined in the culture supernatant.

[2] = tested on: bovine cartilage slices; assay: Proteoglycan shedding from bovine cartilage slices; type: cell-based; details: Interleukin induced, one week of incubation; compared to unmodified xanthohumol
Method: Hyaluronan overproduction causes massive shedding of proteoglycans from cartilage. Bovine cartilage slices were cultivated in organ culture and osteoarthritic reactions were induced by addition on Interleukin and increasing concentrations of xanthohumol-betaine. The amounts of proteoglycan were determined in the cartilage slices and in the medium after one week of incubation.

[3] = tested on: Str/ort mice; assay: Health evaluation of treated Str/ort mice; type: in vivo, mouse; details: 50 mg/kg intraperitoneally, 18 weeks, vs vehicle
Method: At 10-13 weeks of age, 21 male Str/ort mice (n=7/group) were assigned randomly to vehicle, hylin-betaine and xantho-betaine groups and were treated intraperitoneally 18 weeks with either vehicle (5% DMSO in 95% peanut oil), 50 mg/kg compound of Example 1 (“hylin-betaine”) in 5% DMSO and 95% peanut oil or 50 mg/kg compound of Example 2 (“xantho-betaine”) in 5% DMSO and 95% peanut oil.
To assess the health status after hylin-betaine and xantho-betaine treatment, mice were monitored for their health status. The monitoring criteria were body surface temperature, body weight, gait, coat condition, skin tenting for dehydration, hunching, activity, breathing rate and general body condition. Mice were scored blind for each one of these criteria from 1-5 except for body weight and temperature.

[4] = tested on: Str/ort mice; assay: Micro-CT of tibial trabecular and cortical bone in Str/ort mice; type: in vivo, mouse; details: 10-90% of total tibial length, vs vehicle

COc1cc(O)c(CC=C(C)C)c(O)c1C(=O)/C=C/c1ccc(OC(=O)C[N+](C)(C)C)cc1.[Cl-] [Xantho-betaine, (E)-2-(4-(3-(2,4-dihydroxy-6-methoxy-3-(3-methylbut-2-en-1-yl)phenyl)-3-oxoprop-1-en-1-yl)phenoxy)-N,N,N-trimethyl-2-oxoethanaminium chloride]
IC50 [1]: 18 µM | inhibition of hyaluronan export ([1]; culture supernatant after 2 days, comparison with parent compound, particularly below 3 μM): slightly less effective than xanthohumol | reduction of shedding of proteoglycan into the medium [2]: more effective | health status: weight, hunching, gait, activity, vocalisation and respiration scores, coat condition [3]: does not alter | effect on cortical bone (overall) [4]: significantly alter
